Experimental data reported in patent publication US20080312140A1, “Compositions and Methods for Preventing or Treating Hiv Infection” (priority 2005, published 2008).
Like-named read-outs stand apart in the source and are kept apart here. No end group written: not given here.

System: infection of CD4+ human cells (CD4 expressing Hela P4 cells) by HIV-1
Type: cell-based
Settings: for IC50: FIG. 3; for relative infection inhibition activity within the peptide set: peptides assayed at 100 μg/ml, FIG. 2 / FIG. 6
Method: Biological Activity Results of C2 peptide analogs Cell Infection Inhibition Assay The assay consisted of CD4 expressing Hela P4 cells containing the […] reporter gene placed downstream the HIV-LTR promotor. These cells, were seeded 24 hours prior to viral infection at a density of 5×10^5 […] in 24 well culture plates (TPP model by Beyneix). 50 μL of virus solution prepared from CEM infected cells' supernatant, were incubated for 1 hour with the assayed peptides at the required concentrations, at 4° C. 10 μg of anti CD4 monoclonal antibodies 13B8.2 or Leu3A were used as control. After incubation the virus solution was diluted to a total volume of 1 ml and was added to the Hela P4 cells. The cells were incubated at these conditions for 3 days after which their infection rate was assayed according to the […] activity in the cells extract.
The cells were washed well, harvested and disintegrated in a buffer containing 60 mM Na2HPO4, 40 mM NaH2PO4, 10 mM KCl, 1 mM MgSO4, 50 mM β-mercaptoethanol, 2.5 mM EDTA, 0.125% NP40, 0.125% triton, 20% glycerol, 0.2 mM PMSF and 100 U/ml approtinin. The cells extract was cleaned by centrifuge at 4° C. for 15 min at 13,000 rpm. β-galactosidase activity was determined by incubation of 150 μL of total cell extract at 37° C. for 2 hours in the presence of 6 mM ONPG (O-Nitrophenyl-β-D-galactopyranoside) in a buffer containing 80 mM Na2HPO4, 1 mM β-mercaptoethanol and 10 mMMgCl2, followed by absorption measurement at 410 nm. The β-galactosidase activity was normalized according to the total protein quantity in the assay.
This figure includes, for comparison, the inhibition of the lead peptide C2-1, as determined in the cell infection inhibition assay.

[1] = average of peptides C2-2 and C2-3, Hela P4 cells, read-out: average IC50 value

Molecule	IC50 (CD4 expressing Hela P4 cells, several concentrations, read-out: IC50 (infection inhibition))	relative infection inhibition activity within the peptide set	IC50 [1]	inhibition of infection (C3 peptides, FIG. 6: assayed at 100 μg/ml, mean of 3 assays, text: C3-25 at 100 μM)
N=C(N)NCCC[C@@H]1NC(=O)CCC(=O)N[C@@H](CCC(N)=O)C(=O)NCC(=O)N[C@@H](CO)C(=O)N[C@@H](Cc2ccccc2)C(=O)N(CC(N)=O)CCNC1=O [Peptide C2-1]	33 µM	most active		
N=C(N)NCCC[C@@H]1NC(=O)CCCC(=O)N[C@@H](CCC(N)=O)C(=O)NCC(=O)N[C@@H](CO)C(=O)N[C@@H](Cc2ccccc2)C(=O)N(CC(N)=O)CCNC1=O [Peptide C2-2]		most active	81 ± 2 µM	
N=C(N)NCCC[C@@H]1NC(=O)CCCCC(=O)N[C@@H](CCC(N)=O)C(=O)NCC(=O)N[C@@H](CO)C(=O)N[C@@H](Cc2ccccc2)C(=O)N(CC(N)=O)CCNC1=O [Peptide C2-3]		most active	81 ± 2 µM	
C3-19: backbone cyclic C3 peptide of Scheme 1 (SEQ ID NO:7) (RQGSGF; also: backbone cyclic) [Peptide C3-19]				64±12%
